Values quoted from earlier work in patent publication US9339030B2, “Foamable pesticide compositions and methods of application” (BASF Corporation, priority 2009, dated 2016).

What was measured:
termites = conditions: general statement, no experiment described
ants = conditions: general statement, no experiment described

For `N#Cc1nn(-c2c(Cl)cc(C(F)(F)F)cc2Cl)c(N)c1[S+]([O-])C(F)(F)F` (racemic) [fipronil, (±)-5-amino-1-(2,6-dichloro-α,α,α-trifluoro-p-tolyl)-4-trifluoromethylsulfinylpyrazole-3-carbonitrile], the “dose toxic to termites” value (termites) is listed as 2 nanograms per termite and the “dose toxic to ants” value (ants) is listed as “about 1 nanogram per ant”.
